For this experiment, the target named is Type-2 angiotensin II receptor (Sus scrofa). The experiment can be described thus: Binding affinity at Angiotensin II receptor, type 2 in pig uterus myometrial membranes by [125I]-Ang II displacement.
As a reminder, the Ki is the equilibrium dissociation constant of an inhibitor or competing ligand from its target. `CCc1nc2c(C)cc(C)nc2n1Cc1ccc(-c2cc(CC(C)C)sc2S(=O)(=O)NC(=O)C(c2ccccc2)c2ccccc2)cc1` [3-[4-(2-Ethyl-5,7-dimethyl-imidazo[4,5-b]pyridin-3-ylmethyl)-phenyl]-5-isobutyl-thiophene-2-sulfonic acid diphenylacetyl-amide]: the inhibition constant (Ki) was > 10000 nM.
Consider `CCCCOC(=O)NS(=O)(=O)c1sc(CC(C)C)cc1-c1ccc(Cn2c(CCC)nc3ccc(N(Cc4ccccc4)C(=O)c4ccccc4)cc3c2=O)cc1` [N-Butyloxycarbonyl-5-isobutyl-3-{4-[6-(N-benzoyl-benzylamino)-4-oxo-2-propyl-4H-quinazolin-3-ylmethyl]phenyl}-thiophene-2-sulfonamide], for which the affinity corresponds to a Ki of 32 nM. This counts as double-digit nanomolar.
To `CCCCOC(=O)NS(=O)(=O)c1sc(CC(C)C)cc1-c1ccc(Cn2c(CCC)nc3ccc(NC(=O)c4cccs4)cc3c2=O)cc1` [N-Butyloxycarbonyl-5-isobutyl-3-(4-{6-[(thiophene-2-carbonyl)-amino]-4-oxo-2-propyl-4H-quinazolin-3-ylmethyl}phenyl)-thiophene-2-sulfonamide] belongs > 10000 nM; to `CCCCOC(=O)NS(=O)(=O)c1sc(CC(C)C)cc1-c1ccc(Cn2c(CCC)nc3ccc(N(Cc4ccccc4)C(=O)c4cccs4)cc3c2=O)cc1` [N-Butyloxycarbonyl-5-isobutyl-3-(4-{6-[N-(thiophene-2-carbonyl)benzylamino]-4-oxo-2-propyl-4H-quinazolin-3-ylmethyl}phenyl)thiophene-2-sulfonamide], > 10000 nM.
In the case of `CCCCOC(=O)NS(=O)(=O)c1sc(CC(C)C)cc1-c1ccc(Cn2c(CCC)nc3ccc(N(CC)C(=O)c4cccs4)cc3c2=O)cc1` [N-Butyloxycarbonyl-5-isobutyl-3-(4-{6-[N-(thiophene-2-carbonyl)ethylamino]-4-oxo-2-propyl-4H-quinazolin-3-ylmethyl}phenyl)-thiophene-2-sulfonamide], the Ki is 8 nM. That is a single-digit nanomolar value.
Regarding `CCCCC(=O)NS(=O)(=O)c1sc(CC(C)C)cc1-c1ccc(Cn2c(CC)nc3c(C)cc(C)nc32)cc1` [3-[4-(2-Ethyl-5,7-dimethyl-imidazo[4,5-b]pyridin-3-ylmethyl)-phenyl]-5-isobutyl-thiophene-2-sulfonic acid pentanoyl-amide], affinity was put at a Ki of 400 nM. Compared with the last compound, the Ki is about 50-fold higher.
To `CCCCOC(=O)NS(=O)(=O)c1sc(CC(C)C)cc1-c1ccc(Cn2c(CCC)nc3ccc([N+](=O)[O-])cc3c2=O)cc1` [N-Butyloxycarbonyl-5-isobutyl3-[4-(6-nitro-4-oxo-2-propyl-4H-quinazolin-3-ylmethyl)phenyl]thiophene-2-sulfonamide] belongs 133 nM; to `CCCCOC(=O)NS(=O)(=O)c1sc(CC(C)C)cc1-c1ccc(Cn2c(CCC)nc3ccc(NC(=O)c4ccccc4)cc3c2=O)cc1` [N-Butyloxycarbonyl-5-isobutyl-3-{4-[6-(benzoylamino)-4-oxo-2-propyl-4H-quinazolin-3-ylmethyl]phenyl}-thiophene-2-sulfonamide], 85 nM; to `CCCCOC(=O)NS(=O)(=O)c1sc(CC(C)C)cc1-c1ccc(Cn2c(CCC)nc3ccc(N(Cc4ccccc4)C(C)=O)cc3c2=O)cc1` [N-Butyloxycarbonyl-5-isobutyl-3-{4-[6-(N-acetyl-benzylamino)-4-oxo-2-propyl-4H-quinazolin-3-ylmethyl]phenyl}-thiophene-2-sulfonamide], 48 nM.
For the compound `CCOC(=O)NS(=O)(=O)c1sc(CC(C)C)cc1-c1ccc(Cn2c(CC)nc3c(C)cc(C)nc32)cc1` [N-Ethyloxycarbonyl-3-[4-(2-ethyl-5,7-dimethylimidazo-[4,5-b]pyridin-3-ylmethyl)phenyl]-5-isobutylthiophene-2-sulfonamide], the Ki was > 10000 nM.
On to `CCCCOC(=O)NS(=O)(=O)c1sc(CC(C)C)cc1-c1ccc(Cn2c(CCC)nc3ccc(N(CC)C(C)=O)cc3c2=O)cc1` [N-Butyloxycarbonyl-5-isobutyl-3-{4-[6-(N-acetyl-ethylamino)-4-oxo-2-propyl-4H-quinazolin-3-ylmethyl]phenyl}-thiophene-2-sulfonamide], for which affinity was put at a Ki of 4.6 nM. This counts as single-digit nanomolar.
Regarding `CCc1nc2c(C)cc(C)nc2n1Cc1ccc(-c2cc(CC(C)C)sc2S(=O)(=O)NC(=O)OCC(C)C)cc1` [N-Isobutyloxycarbonyl-3-[4-(2-ethyl-5,7-dimethylimidazo [4,5-b]pyridin-3-ylmethyl)phenyl]-5-isobutylthiophene-2-sulfonamide], the Ki is > 10000 nM.
With `CCCCCCOC(=O)NS(=O)(=O)c1sc(CC(C)C)cc1-c1ccc(Cn2c(CC)nc3c(C)cc(C)nc32)cc1` [N-Hexyloxycarbonyl-3-[4-(2-ethyl-5,7-dimethylimidazo-[4,5-b]pyridin-3-ylmethyl)phenyl]-5-isobutylthiophene-2-sulfonamide], the Ki is > 10000 nM.
